From US20090208455A1, “Method for Treating Polyglutamine Expansion Neurodegenerative Diseases” (INSERM (Institut National de la Sante et de la Recherche …, priority 2006, published 2009)
Entries after “also recorded” stand apart in the source; their conditions may differ. Peptide text beside a SMILES is read from it. * marks the point of attachment. Cbz = O=C(OCc1ccccc1)*

Legend:
proteasome = assay: Proteasome inhibition by MG132 in COS-7 cells, Western blot of ATXN7; type: cell-based
Protocol: (§1) Cell culture, transfections, MG132, INF and cadmium treatments: COS-7 cells were maintained in DMEM (Invitrogen) supplemented with 5% FBS, and penicillin-streptomycin (100 UI/ml; 100 μg/ml). Cell lines were transfected with Lipofectamine-PLUS reagents (Invitrogen) as prescribed. […] Recombinant human Interferon beta (Hu-IFN-b) is obtained from human fibroblast mRNA expressed in E. Coli. Its molecular weight is approximately 20 kDa. Recombinant human Interferon beta was supplied as a solution at 1×10^6 units/ml in PBS (phosphate buffered saline) containing 0.1% BSA (bovine serum albumin) and 10% glycerol. It was purchased from Sigma-Aldrich. Recombinant human Interferon beta (2000 UI/ml) was added to the culture medium after plating and during transfection. Cadmium chloride (Cadmium chloride hemi pentahydrate, Sigma Aldrich) (from 0.25 μM to 2 μM) was added during transfection. For proteasome inhibition, 5 μM MG132 was applied for 12 h, 25 h post-transfection. Cultures of post-mitotic neurons were prepared from the cortex of embryonic day 16 Wistar rats. Cells were extracted from the embryos and cultured with 1 μM MK801. Glial cell proliferation was stopped by adding 1 μM cytosine arabinoside after 3 h. Primary cultures of cortical neurons were transfected 96 h after plating using Lipofectamine 2000 reagent (Invitrogen) according to the manufacturer's instructions.
Western blot and filter retardation assay: Cells were harvested in PBS, pelleted and lysed 30 min on ice in lysis buffer containing 50 mM Tris pH 8.8, 100 mM NaCl, 5 mM MgCl2, 0.5% NP40, 1 mM EDTA and 250 UI/ml benzonase (Merck) supplemented with a cocktail of protease inhibitors (Complete and Pefabloc, Roche). Total extracts were centrifuged at 13000 rpm for 10 min at 4° C. to separate soluble proteins from aggregates and membranes. Supernatants (30 μg protein) were analyzed by Western blot. Pellets were washed with PBS and further incubated 30 min on ice in a pellet buffer containing 20 mM Tris pH 8.0, 15 mM MgCl2 and 250 UI/ml benzonase. Protein concentrations (supernatant and pellet) were determined by Bio-Rad assay. […]

mutant ATXN7 aggregates = assay: Filter retardation assay of SDS-insoluble material in COS-7 cells; type: cell-based; conditions: 0.25 to 2 μM cadmium, filter assay on pellet fraction
Protocol: as §1, with “For proteasome inhibition, 5 μM MG132 was applied for 12 h, 25 h post-transfection. Cultures of post-mitotic neurons were prepared from the cortex of embryonic day 16 Wistar rats. Cells were extracted from the embryos and cultured with 1 μM MK801. Glial cell proliferation was stopped by adding 1 μM cytosine arabinoside after 3 h. Primary cultures of cortical neurons were transfected 96 h after plating using Lipofectamine 2000 reagent (Invitrogen) according to the manufacturer's instructions.” left out
Western blot and filter retardation assay: Cells were harvested in PBS, pelleted and lysed 30 min on ice in lysis buffer containing 50 mM Tris pH 8.8, 100 mM NaCl, 5 mM MgCl2, 0.5% NP40, 1 mM EDTA and 250 UI/ml benzonase (Merck) supplemented with a cocktail of protease inhibitors (Complete and Pefabloc, Roche). […] Supernatants (30 μg protein) were analyzed by Western blot. […] Protein concentrations (supernatant and pellet) were determined by Bio-Rad assay. […]

endogenous PML bodies = assay: Immunofluorescence of endogenous PML bodies in cadmium-treated cells expressing FL-74Q; type: cell-based; conditions: 2 μM cadmium
Protocol: Cell culture, transfections, MG132, INF and cadmium treatments: COS-7 cells were maintained in DMEM (Invitrogen) supplemented with 5% FBS, and penicillin-streptomycin (100 UI/ml; 100 μg/ml). Cell lines were transfected with Lipofectamine-PLUS reagents (Invitrogen) as prescribed. Unless otherwise specified, cells were harvested or analyzed by immunofluorescence 40-45 h post-transfection. β-INF. Recombinant human Interferon beta (Hu-IFN-b) is obtained from human fibroblast mRNA expressed in E. Coli. Its molecular weight is approximately 20 kDa. Recombinant human Interferon beta was supplied as a solution at 1×10^6 units/ml in PBS (phosphate buffered saline) containing 0.1% BSA (bovine serum albumin) and 10% glycerol. It was purchased from Sigma-Aldrich. Recombinant human Interferon beta (2000 UI/ml) was added to the culture medium after plating and during transfection. Cadmium chloride (Cadmium chloride hemi pentahydrate, Sigma Aldrich) (from 0.25 μM to 2 μM) was added during transfection. For proteasome inhibition, 5 μM MG132 was applied for 12 h, 25 h post-transfection. Cultures of post-mitotic neurons were prepared from the cortex of embryonic day 16 Wistar rats. Cells were extracted from the embryos and cultured with 1 μM MK801. Glial cell proliferation was stopped by adding 1 μM cytosine arabinoside after 3 h. […]

[1] = tested on: wild type mice (C57 black6); assay: Toxicity of beta-IFN injection protocol in wild type mice; type: in vivo; conditions: 10.000 Units per mouse, 3 injections per week intraperitoneally, 12 weeks, versus saline
Source text: (§2) Protocol: 3 injections (intraperitoneally) per week, each of 10.000 Units murine beta IFN per mouse (from Sigma). Starting at 5 weeks of age, and during 10 weeks or more, until the animals die.
The inventors first tested the toxicity of such a treatment, as no publication described a treatment of young animals with IFN. In adult mice affected by multiple sclerosis and receiving injections of beta-IFN, the doses were 10.000 Units per mouse, over 14 weeks. The inventors chose to use the same doses and tested toxicity of the protocol in wild type mice of the same strain (C57 black6) than the KI mice, during 12 weeks. […] The inventors concluded that the dose used was not toxic, and decided to use 10.000 Units, 3 times a week, in the SCAT mouse model.

SCA7 KI mice [2] = assay: Beam walking test in SCA7 knock-in mice; type: in vivo; conditions: 10.000 Units i.p. 3 times a week from 5 weeks of age; effect from 12 weeks of age, p inf to 0.005
Protocol: This test was performed each week, with 3 sessions per animal (maximal time 1 min.). The number of errors made on the wooden beam by each mouse, and the traveled total distance were noted. A mean of the 3 assays was calculated.
(§3) The inventors use the Spinocerebellar ataxia 7 (SCA7) knock-in mouse model developed in Huda Zhoghbi's lab (Yoo et al, 2003). This mouse model SCAT 266Q/5Q reproduces features of an infantile SCAT disease. The phenotype begins at 5 weeks of age with weight loss and then visual impairment. At about 8 weeks their locomotor functions are affected, and by 13-14 weeks of age the ataxic phenotype is severe with tremor, gait ataxia, muscular mass loss, kyphosis. The mice die between 14 and 19 weeks of age. In this severely affected mice model the inventors undertook to test a treatment with murine beta-IFN (Sigma).
Protocol: 3 injections (intraperitoneally) per week, each of 10.000 Units murine beta IFN per mouse (from Sigma). Starting at 5 weeks of age, and during 10 weeks or more, until the animals die. […]
The mouse is placed at the end of the beam, at segment number 1 and the task is to walk towards the box placed at the other end. […] During the task, the inventors carefully monitored the numbers of errors done with the paws on the beam (front or rear paws). The ratio number of errors/distance traveled (EID) is calculated for each animal.

SCA7 KI mice [3] = assay: Locotronic test in SCA7 knock-in mice; type: in vivo; conditions: treated KI versus untreated KI
Protocol: Mice have been subjected to crossing the Locotronic apparatus, each week, 3 sessions with 15 min pause between sessions. FIG. 7A indicates the time in seconds for crossing the Locotronic and FIG. 7B indicates the numbers of errors (front paws, rear paws) made by the mice during the task. A mean value was calculated for the 3 sessions, for each group of animals.
as §3, with “(Sigma). […]” for “(Sigma).”
The Locotronic is designed to evaluated fine motor coordination in mice crossing the apparatus. […] On the side of the apparatus there are infra red sensors which measure errors made with front paws and rear paws (differentially scored). […] All the errors detected by the sensors are saved in a file as well as the time needed for crossing. […]

SCA7 KI mice [4] = assay: Life time of SCA7 knock-in mice; type: in vivo
Source text: as §3, §2

[5] = 5 μM MG132, COS-7 cells, Western blot

With `CC(C)C[C@@H](C=O)NC(=O)[C@H](CC(C)C)NC(=O)[C@H](CC(C)C)NC(=O)OCc1ccccc1` [MG132] (Cbz-Leu-Leu-Leu-aldehyde) the “amount of mutant ATXN7 FL-74Q coexpressed with PML IV” value (proteasome; [5]) was “significantly increases; also recorded: increased”, the “amount of mutant ATXN7 FL-74Q expressed alone (absence of PML IV)” value (proteasome; [5]) was “significantly increases; also recorded: increased” and the “PML-dependent degradation of ATXN7 induced by β-INF” value (proteasome; MG132 with β-INF treatment, COS-7 cells) was “inhibited”.

For `O.O.O.O.O.[Cd+2].[Cd+2].[Cl-].[Cl-].[Cl-].[Cl-]` [cadmium, Cadmium chloride hemi pentahydrate], the “aggregation of mutant ATXN7” value (mutant ATXN7 aggregates) was “dose-dependent” and the “endogenous PML bodies” value (endogenous PML bodies) was “totally disrupted”.

For “beta-IFN: murine beta-IFN (Sigma) injected intraperitoneally in mice”, the adverse effects [1] was “did not observe adverse effects”, the “locomotor coordination (ratio number of errors/traveled distance)” value (SCA7 KI mice [2]) was “improves the locomotor coordination” and the “time for crossing the Locotronic” value (SCA7 KI mice [3]; 10.000 Units i.p. 3 times a week from 5 weeks of age) was “slower than the beta-interferon treated KI”. For the same molecule, the “number of errors in the Locotronic” value (SCA7 KI mice [3]; 10.000 Units i.p. 3 times a week, at 14 weeks of age) was “tendency for the treated KI to make less errors”, the mean life time (SCA7 KI mice [4]; 10.000 Units i.p. 3 times a week from 5 weeks of age, untreated SCA7 KI 15.1 weeks) was 16.25 weeks and the “extension of the life time” value (SCA7 KI mice [4]; treated versus untreated SCA7 KI mice) was 7.5%.
